According to patent US11154519B2, “Inhibitors and their uses” (MEDICAL RESEARCH COUNCIL, priority 2015, dated 2021):

Assays:
PPP1R15A-PP1 complex = molecular target: T1, PPP1R15A-PP1 complex (Homo sapiens, UniProt O75807); assay: SPR steady-state binding to R15A-PP1 holophosphatase; details: SPR steady-state, MBP-R15A325-636-His captured on bio-PP1c, 10° C.; read-out: R15A (KD)
T1 construct: cDNAs encoding amino acids 325-636 of PPP1R15A and 340-698 of PPP1R15B were His-tagged and cloned into pMAL-c5x; made in house; host or cells: R15A: E. coli BL21-Gold (pMAL-c5x); PP1γ: Sf9 insect cells (baculovirus, pDW464)
T1 sequence (O75807 325-636): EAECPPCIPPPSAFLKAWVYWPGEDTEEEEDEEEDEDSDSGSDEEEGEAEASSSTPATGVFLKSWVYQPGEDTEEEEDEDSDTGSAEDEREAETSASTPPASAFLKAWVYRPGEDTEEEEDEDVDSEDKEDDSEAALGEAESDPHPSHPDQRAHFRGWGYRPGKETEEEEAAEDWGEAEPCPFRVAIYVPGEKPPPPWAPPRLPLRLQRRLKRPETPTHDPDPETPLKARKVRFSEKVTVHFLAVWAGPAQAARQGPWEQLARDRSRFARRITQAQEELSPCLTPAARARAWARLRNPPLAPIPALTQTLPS
T1 sequence (P36873 whole entry partner, the tested form may be a part): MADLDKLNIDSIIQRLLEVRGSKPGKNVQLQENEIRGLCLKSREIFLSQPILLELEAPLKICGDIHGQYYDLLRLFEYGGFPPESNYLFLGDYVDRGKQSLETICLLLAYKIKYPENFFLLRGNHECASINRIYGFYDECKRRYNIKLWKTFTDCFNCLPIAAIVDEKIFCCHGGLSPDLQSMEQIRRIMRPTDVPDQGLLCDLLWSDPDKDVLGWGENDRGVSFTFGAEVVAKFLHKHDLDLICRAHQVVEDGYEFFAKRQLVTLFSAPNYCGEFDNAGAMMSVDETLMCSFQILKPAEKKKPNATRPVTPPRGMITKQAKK
Experimental: (§1) PPP1R15A^325-636 and PPP1R15B^340-698 were expressed and purified as follows: the cDNAs encoding amino acids 325-636 of PPP1R15A and 340-698 of PPP1R15B were His-tagged and cloned into pMAL-c5x. Recombinant PPP1R15A/B were expressed in BL21-Gold cells and purified by affinity chromatography on a HisTrap HP column (GE Healthcare), followed by a MBPTrap HP column (GE Healthcare). The proteins were analyzed on BOLT SDS-PAGE 4-12% Bis-Tris gels (Life Technologies) stained with SimplyBlue SafeStain (Life Technologies). cDNA encoding for human PP1γ was cloned into the baculovirus transfer vector pDW464 to add a biotin acceptor peptide (BAP). The vector also encodes for the E. coli biotin holoenzyme synthetase (BirA), so that BAP-tagged proteins can be biotinylated in vivo in Spodoptere frugiperda (Sf9) insect cells (Duffy et al., Anal. Biochem., 262, 122-128, 1998). The Bac-to-Bac baculovirus expression system (Life Technologies) was used to generate the recombinant bacmid DNA and Sf9 insect cells were used to amplify the viral stocks Cultures were harvested by centrifuging at 1,200 g for 15 minutes, cell pellets were resuspended in lysis buffer (50 mM Tris pH 7.4, 150 mM NaCl, 0.2% Triton, 5% Glycerol, 1 PiC tablet (Roche) per 50 ml and 0.2 mM PMSF) and followed by gentle sonication. The protein was first purified on a 5 ml HiTrap Q HP column (GE Healthcare) followed by a HiLoad 16/600 Superdex 200 column (GE Healthcare). The positive fractions confirmed by SDS-PAGE and western blot were pooled, concentrate to ˜1 μM and stored at −80° C.
(§2) A Biacore T200 (GE Healthcare) system was used for all experiments and biotinylated PP1 was captured using a Sensor Chip SA (GE Healthcare, catalog no BR-1005-31). The streptavidin coated surface was activated by 1 min injection with a solution of 50 mM NaOH and 1 M NaCl. Biotin-PP1 was diluted in the running buffer (50 mM Tris pH 7.5, 100 mM NaCl, 0.1 mM EGTA, 1 mM MnCl2, 0.05% Tween 20) and injected at approximately 300 nM concentration directly to streptavidin coated surface for 100 sec or to reach immobilization level of biotin-PP1 corresponding to ˜7000 RU. A blank immobilization was performed for one of the SA sensor chip surface to use as a reference.
(§3) With minor deviations, the same procedure and conditions were used in all binding experiments. Small molecules were stored as 50 mM stock solutions in 100% DMSO. Prior to determining binding constants, serial dilutions of either 12 or 8 concentrations of the compounds were prepared in the running buffer in a 96-well plate. Prior to each compound dilution series the regulatory subunit, R15A or R15B, was diluted to […] in the running buffer and captured on the biotin-PP1 surface, to form the holophosphatase complex on the sensor chip surface. Then, without regenerating the surface, the compound dilution series was injected onto the surface of the chip Sensorgrams were analyzed using the Biacore T200 evaluation software and the binding constants determined based on a steady-state model. Kinetic experiments are carried out using different concentrations of the compound and their respective equilibrium binding levels determined.
(§4) Surface Plasmon Resonance (SPR) was used to measure the binding affinity of compounds to the PPP1R15A/B-PP1 phosphatase complex. Biotin acceptor peptide (BAP) was fused to the N-terminus of PP1γ, which enables the biotinylation of the BAP-tagged protein in Sf9 insect cells. After purification the BAP-PP1γ protein was captured on a streptavidin sensor chip (SA-chip, GE healthcare) to a response level of ˜5.000 RU. Using controlled biotinylation enables orientated and uniform immobilization on the sensor chip surface. The PP1γ was then used to capture PPP1R15A/B and form a holophosphatase complex on the surface of the streptavidin chip. This complex can then be used to test binding of compounds. 10 μM PPP1R15A/B protein concentration was used to form the holophosphatase complex during a 80 s injection. […]

PPP1R15B-PP1 = molecular target: T2, PPP1R15B-PP1 (Homo sapiens, UniProt Q5SWA1); assay: SPR steady-state binding to R15B-PP1 holophosphatase; details: SPR steady-state, MBP-R15B340-698-His captured on bio-PP1c, 10° C.; read-out: R15B (KD)
T2 construct: cDNAs encoding amino acids 325-636 of PPP1R15A and 340-698 of PPP1R15B were His-tagged and cloned into pMAL-c5x; made in house; host or cells: R15B: E. coli BL21-Gold (pMAL-c5x); PP1γ: Sf9 insect cells (baculovirus, pDW464)
T2 sequence (Q5SWA1 340-698): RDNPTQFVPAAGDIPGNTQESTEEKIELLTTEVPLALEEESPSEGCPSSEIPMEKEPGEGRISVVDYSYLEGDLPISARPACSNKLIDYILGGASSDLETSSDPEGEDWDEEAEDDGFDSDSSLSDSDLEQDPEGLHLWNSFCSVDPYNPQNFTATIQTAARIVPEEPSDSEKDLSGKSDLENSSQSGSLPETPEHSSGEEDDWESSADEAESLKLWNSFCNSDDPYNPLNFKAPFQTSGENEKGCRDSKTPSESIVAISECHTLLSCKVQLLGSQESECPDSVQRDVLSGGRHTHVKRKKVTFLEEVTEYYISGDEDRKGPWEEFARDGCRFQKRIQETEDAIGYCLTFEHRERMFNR
T2 sequence (P36873 whole entry partner, the tested form may be a part): as the sequence (P36873 whole entry partner, the tested form may be a part) above
Experimental: as §1, §2, §3, §4

HeLa cells [1] = assay: Cytoprotection against ER stress (tunicamycin), IncuCyte; type: cell-based; details: Homo sapiens, 250 ng/ml Tunicamycin, 72 hours, compound 0-20 μM, read-out: Cytoprotection from Tm (compared to GNB)
Experimental: (§5) HeLa cells (40,000 cells/ml) were plated in a 96-well plate and treated with different concentrations (0-20 μM) of a compound as indicated in the presence of 250 ng/ml Tunicamycin for 72 hours. To monitor cell death 1/2000 dilution of the CellTox green dye (Promega) was added to the media. The growth of the cells was monitored over time and pictures taken every 2 hours with the IncuCyte ZOOM system and analysed by the IncuCyte ZOOM software (Essen BioScience). […] Cytoprotection against ER stress can be measured by a suitable assay. In this instance, cytoprotection was measured in HeLa cells in which ER stress was elicited by the addition of media containing tunicamycin, a drug that blocks N-glycosylation, thereby preventing protein folding and inducing the unfolded protein response. Cell viability was then detected in the presence and absence of a compound listed in Table 1 after a set period of time, by monitoring cell growth over time. Cytoprotection from ER stress was measured in terms of the percentage increase in viable cells (relative to control) after ER stress.

HeLa cells [2] = assay: Cell death dose response (CellTox green, IncuCyte); type: cell-based; details: for Effect on cell death: IncuCyte, 0-20 μM
Experimental: Toxicity of the compounds is assessed using Cell viability Counting Kit-8 (Dojindo) or in a Incucyte (Essenbioscience) using both phase contrast and IncuCyte™ Cytotox Green Reagent.
as §5
EC50 were extrapolated from dose response experiments on cell death. Data from IncuCyte was plotted and analysed in Prism. The “% of cell death” for each data point. For each concentration there is a % of cell death vs time, the area under the curve was taken and plotted against log conc=>EC50 (analysis in Prism).

protein synthesis [3] = assay: Assessment of translation rates (35S-methionine labelling); type: cell-based
Experimental: Cells (90,000 cells/ml) were plated in 12-well plates, treated as indicated, labelled with 100 μCi/mI 35S-methionine (Hartmann Analytic) for 10 minutes at 37° C., washed with ice-cold PBS and lysed in 120 μl Laemmli Buffer. Lysates were boiled at 95° C. for 5 minutes, sonicated and resolved on 4-12% Bolt Bis-Tris Plus Gels (Thermo Fisher Scientific). Gels were then stained with InstantBlue (Expedeon) and analyzed by phosphorimaging and quantified using ImageJ.
By monitoring translation rates as described above, the activities of R15A, R15B and R15A/B inhibitors can be defined as follows (also shown in FIG. 12). An R15A inhibitor has no effect on translation in unstressed cells but prolongs translation attenuation following stress. A selective R15B inhibitor transiently attenuate protein synthesis because R15A compensates for the inhibition of R15B.

R15A or R15B = assay: Selective binding towards R15A or R15B (based on SPR); set-up: species or system human
Experimental: In one embodiment, the compounds of formula IB inhibit PPP1R15A and PPP1R15B. Inhibition of PPP1R15A and PPP1R15B can be determined from binding analysis. For example, binding can be analysed using SPR (surface plasmon resonance) to obtain KD values. A PPP1R15A and PPP1R15B inhibitor may be defined as a compound where the difference in KD values between R15A and R15B is no more than about 3 fold.
Small molecules were stored as 50 mM stock solutions in 100% DMSO. Prior to determining binding constants, serial dilutions of either 12 or 8 concentrations of the compounds were prepared in the running buffer in a 96-well plate. Prior to each compound dilution series the regulatory subunit, MBP-R15A^325-636-His or MBP-R15B^340-698-His, was diluted to 10 μM in the running buffer and captured on the bio-PP1c surface at a flow rate of 30 μl/min for 1 minute to form the holophosphatase complex on the sensor chip surface. This was followed by 1 minute stabilization period, to wash off any unspecific binding. Then, without regenerating the surface, the compound dilution series was injected onto the surface of the chip at a flow rate of 30 μl/min for 1 minute, followed by 2 minutes dissociation time. After each dilution series the surface was regenerated using 3 M NaCl for 90 seconds. After regeneration, SPR responses generally returned to base levels and the bio-PP1c surface was ready for the next compound dilution series. In order to be able to correct for small variations in DMSO concentration between samples, eight solvent samples ranging from 0.06 to 8% DMSO were injected every 50th cycle. The flow cell temperature was 10° C.
Sensorgrams were analyzed using the Biacore T200 evaluation software and the binding constants determined based on a steady-state model. Kinetic experiments are carried out using different concentrations of the compound and their respective equilibrium binding levels determined.

mice = assay: Side effects of Guanabenz: activity of mice after dosing; type: in vivo; details: 10 mg/kg oral gavage
Experimental: To assess whether of a compound of Example 1 had the side effects of Guanabenz, mice (n>3) were gavaged orally with 10 mg/kg of compound or Guanabenz. Their activity was monitored 30 minutes following dosing.
In humans, the adrenergic agonist activity of Guanabenz has side effects including drowsiness and coma at high doses (A. H. Hall, Ann Intern Med 102; 787-788; 1985). Due to of these side effects, Guanabenz is no longer used in human. It is anticipated that Guanabenz derivatives have the side effects of Guanabenz, associated with alpha-2 adrenergic activity.

protein synthesis [4] = details: unstressed cells; Tsaytler et al., Science 2011; cited from earlier work
PP1 = molecular target: T3, PP1 (Homo sapiens, UniProt P36873); assay: SPR binding to PP1 alone; details: SPR steady-state, bio-PP1c surface
T3 construct: made in house; host or cells: Sf9 insect cells (baculovirus, pDW464)
T3 sequence (P36873 whole entry): as the sequence (P36873 whole entry partner, the tested form may be a part) above

SMILES | Kd (PPP1R15A-PP1 complex) [µM] | Kd (PPP1R15B-PP1) [µM] | Emax (HeLa cells [1]) [%] | Effect on cell death (HeLa cells [2]) | Effect on translation (protein synthesis [3]; 35S-methionine labelling of cells) | Selective binding towards R15A or R15B (based on SPR) (R15A or R15B) | EC50 (HeLa cells [2]; Homo sapiens, area under % cell death vs time curve against log conc, read-out: Effect on cell death ⇒ EC50) [µM] | protein synthesis rates (protein synthesis [3]; unstressed cells, 10 μM, FIG. 12) | activity of mice 30 minutes following dosing (mice) | protein synthesis (protein synthesis [4]) | Effect on translation ⇒ Inhibits (protein synthesis [3]; target(s) concluded to be inhibited) | Kd (PP1) [µM]
[H]/N=C(\N)NN=Cc1cc(F)c(F)cc1Cl [Compound 32, (E)-2-(2-chloro-4,5-difluorobenzylidene)hydrazine-1-carboximidamide] | 4.82 ± 0.26 | 17.3 | 100 | No | Persistent |  |  |  |  |  |  | 
[H]/N=C(\N)NN=Cc1cnc(Cl)nc1Cl [Compound 2, (E)-2-((2,4-dichloropyrimidin-5-yl)methylene)hydrazine-1-carboximidamide] | 46.4 ± 18.3 | 9.22 | 0 | Yes |  | R15B (A “selective inhibitor” may be defined as a compound where the difference in KD values between R15A and R15B is greater than 3 fold) | 7.71 |  |  |  |  | 
N=C(N)N/N=C/c1c(Cl)cccc1Cl [Guanabenz, reference compound] |  |  |  |  |  |  |  | doesn't inhibit protein synthesis in unstressed cell | did not move 30 minutes after dosing | doesn't inhibit protein synthesis in untressed cells |  | 
[H]/N=C(\N)NN=Cc1ccc(F)c(F)c1Cl [Compound 27, (E)-2-(2-chloro-3,4-difluorobenzylidene)hydrazine-1-carboximidamide] | 10.6 |  | 57 | No |  |  |  |  |  |  | R15AB | 
N=C(N)N/N=C/c1cc(Cl)c(Cl)cc1Cl [Compound 4, (E)-2-(2,4,5-trichlorobenzylidene)hydrazine-1-carboximidamide] | 0.457 ± 0.13 | 0.022 ± 0.02 | 80 | No |  | R15AB (A PPP1R15A and PPP1R15B inhibitor may be defined as a compound where the difference in KD values between R15A and R15B is no more than about 3 fold) |  |  |  |  |  | 332
[H]/N=C(\N)NN=Cc1cccc(F)c1Cl [Compound 25, (E)-2-(2-chloro-3-fluorobenzylidene)hydrazine-1-carboximidamide] | 6.18 ± 3.31 | 9.22 ± 0.19 | 54 | No |  | R15AB (A PPP1R15A and PPP1R15B inhibitor may be defined as a compound where the difference in KD values between R15A and R15B is no more than about 3 fold) |  |  |  |  |  | 3.65
